In a melting point compilation (Tetko et al.; mined from patent text by program, amines drawn as free bases though some values may be those of a salt):

SMILES | melting point [°C]
COC(=O)c1ccc(OCCCN(C(=O)c2ccc(C(C)(C)C)cc2)c2ccc(Cl)cc2)cc1 | 201 to 203
CCc1ccc(C2COc3c(C)c(C)c(N)c(C)c32)cc1 (stereo not given) | 88 to 89
Cc1oc(-c2ccccc2)nc1COc1cccc(C=O)c1 | 67 to 68
CCCCCCc1cc2c(s1)-n1c(C)nnc1CN=C2c1ccc(C)cc1C | 99 to 101
Cn1cncc1C(O)(c1ccc(Cl)nc1)c1ccc2noc(-c3cccc(Cl)c3)c2c1 (stereo not given) | 230
CC(C)c1nc2c(nc1C(C)C)C(=O)CCC2 | 92 to 94
Cc1ccc(S(=O)(=O)Nc2ccccc2O)cc1 | 140
CNC(=O)N(N)c1nnc(C(C)(C)C)s1 | 141 to 142
CCCCCCCCCCCc1[nH]c2ccc(C(=O)OC)cc2c1C=O | 162 to 165
CC(C)(C)N1C(=O)C(=O)N(c2cc(Cl)cc(Cl)c2)S1=O (stereo not given) | 182
CCC(=O)c1ccc2c(c1)OC(c1ccccc1)(c1ccccc1)O2 | 69 to 70.5
CC(=O)OC1CCC2(CO)C(CCC3C4=CCC(OC(=O)C(C)(C)C)C4(C)CCC32)C1 (stereo not given) | 133 to 134
C[C@H]1C[C@@](O)(c2cccc(Sc3cc4c(cc3F)N(C)C(=O)CC4)c2)CCO1 | 90 to 92
CC(C)N1CCN(CCN2CCN(c3noc4cc(F)ccc34)CC2)C1=O | 125 to 127
Cc1ccccc1Nc1nc(NCc2ccccc2)nc2ccccc12 | 127 to 130
NS(=O)(=O)c1ccc(-c2c(-c3ccccc3)noc2CCO)cc1 | 186 to 190
Cc1cccc(C)c1C(=O)NC(C)(C)C | 134 to 136
CCCCCCCCCC1COC(c2ccc(CCCCCCC)c(F)c2F)OC1 (stereo not given) | 40.4
CCOC(=O)NC(=S)SCC | 60
O=[N+]([O-])c1ccc(CCN2CCN(c3ccc([N+](=O)[O-])cc3Cl)CC2)cc1 | 100 to 102
CCON=C(C(C)=NOCc1ccccc1C(=NOC)C(=O)OC)c1ccc(Oc2ccc(Cl)cc2)cc1 | 90 to 93
OCCCCCCOc1ccc(OCc2ccccc2)cc1 | 94 to 97
N#Cc1[nH]c(-c2ccc(Cl)cc2)c(S(=O)(=O)C(F)(F)F)c1Br | 170 to 185
CCCCCCCC(=O)NNC(=O)N1Cc2ccccc2Oc2ccc(Cl)cc21 | 127 to 129
ClCCN(CCCl)CCOc1cccc2c(Cl)c3ccccc3nc12 | 105 to 106

SMILES | melting point [°C]
COc1cc(N)c(Cl)cc1C(=O)N[C@H]1CCN(CCCC(=O)N2CCC(=O)CC2)C[C@H]1OC (relative stereo) | 157
Oc1ccc2oc(-c3ccc(O)c(F)c3)nc2c1 | 262 to 268
COc1cc(C(=O)O)ccc1Oc1ccccc1N | 192 to 194
CCCCNc1nc2cc(C)nn2c2c1cnc1c2cnn1CC | 160 to 162
NC(=O)Cc1ccc2c(c1)C(=O)Cc1ccccc1O2 | 152 to 154
CCCc1cccc2cc(C(=O)O)oc12 | 75 to 80
CCCCN1CC2CN(S(=O)(=O)c3ccc(NC(=O)c4ccc(C#N)cc4)cc3)CC(C1)C2(C)C | 145
CC(C)n1nc(-c2sc(N)nc2-c2ccc(F)cc2)ccc1=O | 256 to 257
CN(C)CCCOc1ccc(C(=O)c2c(-c3ccccc3)oc3ccccc23)cc1 | 85 to 95
O=C(Nc1ccc(C(=O)N2CCC(O)c3ccccc32)cc1)c1cc(Cl)cc(Cl)c1 (stereo not given) | 215 to 217
O=C(O)CCCCCCCCCCCOc1ccccc1OCCCC(=O)O | 105
O=C(Nc1ccc(OC(F)(F)F)cc1)NC1CCN(C(=O)c2cc(O)c(O)c(O)c2)CC1 | 168 to 175
CC(C)(C)OC(=O)C1C(C#CC(=O)OCC(Cl)(Cl)Cl)C1(C)C (stereo not given) | 70 to 71
CC1(C)N=C(c2ccccc2F)c2cc([N+](=O)[O-])cc(Cl)c2NC1=O | 142 to 143
CCC(CC)c1nc(-c2ccncc2)c(-c2ccc(Cl)cc2)n1CC | 239 to 242
CC(CCc1ccc(CC(=O)O)cc1)CC(=O)O (stereo not given) | 100 to 102
Cc1c(SC(=S)N(C)C)sn(-c2ccccc2)c1=O | 158 to 160
CCCCCCCCCC(CCC)CC(C)CC(O)c1cc(O)ccc1O (stereo not given) | 123
CS(=O)(=O)c1ccc(C(Cc2ccc(F)cc2)C(=O)Nc2nc3ccccc3o2)cc1 (stereo not given) | 109 to 110
Nc1ncc(S(=O)c2ccc(C(F)(F)F)cn2)s1 (stereo not given) | 144 to 145
CCCCNc1c(C(=O)OCC)c(C)nc2nc(C)c(C)nc12 | 97 to 99
CC(C)n1nc(-c2nc(S(C)(=O)=O)c(N)nc2-c2ccccc2)ccc1=O | 249 to 251
O=C(NCCCCN1CCC(Oc2cccc3ccccc23)CC1)c1ccc(-c2ccc(C(F)(F)F)cc2)cc1 | 166
Cc1nc2c(cnn2-c2c(Cl)cc(C(F)(F)F)cc2Cl)c(=O)n1C | 195
CC(C)(C)NCCOP1Oc2c(cc(C(C)(C)C)cc2C(C)(C)C)Cc2cc(C(C)(C)C)cc(C(C)(C)C)c2O1 | 189 to 192

SMILES | melting point [°C]
CCCOc1cc(CCCOc2c(CC(=O)O)cccc2OC)n(Cc2ccc(C(F)(F)F)cc2)n1 | 122 to 123
CC(=O)OC1c2ccccc2Oc2ccccc21 | 109 to 112
Cc1[nH]cnc1Cc1cccc2c1OC(C)(C)OC2 | 172 to 178
Cn1nnc(-c2ccc(C#CC3(O)CN4CCC3CC4)cc2)n1 (stereo not given) | 228 to 230
COC(=O)Cc1ccccc1NC(=S)N(C)NC(=O)c1ccccc1 | 148 to 150
Cc1cnc(C(=O)NC(C)C)c(C(=O)O)c1 | 95 to 105
CN1C(N2CCCCC2)=C2N=c3cc(Cl)ccc3=C2Oc2ccccc21 | 244 to 245
FC(F)(F)Oc1ccc(Nc2cc(-n3ccc(C(F)(F)F)n3)c3ccccc3n2)cc1 | 128 to 130
O=C1NC(=O)N(CCc2ccccc2)C1O (stereo not given) | 168 to 169
NC(=O)CCc1ccc(-c2nc(=O)c3ccccc3s2)nc1 | 248
CCCN1c2ncccc2C(=O)N(C)c2ccc(-c3cn[nH]c3)nc21 | 206 to 207
CCC(NC(C)=O)c1ccc(CN2CCN(c3ccc(F)cc3F)CC2)cc1 (stereo not given) | 137 to 138
O=C1Nc2c(ccc3ccccc23)SC1=Cc1ccc(Cl)cc1 | 277 to 279
COC(=O)c1ccc(-c2cc(CCNC(C)=O)c3cc(OC)ccc3c2)cc1 | 147 to 149
CCCCCCCCCCOc1ccc(Br)cc1C12CC3CC(CC(C3)C1)C2 | 69 to 70
CCOP(=O)(Cn1c(=O)c(=O)[nH]c2cc([N+](=O)[O-])ccc21)OCC | 197
O=C(O)C1=Cc2cc(-c3ccc(C(F)(F)F)cc3)ccc2OCC1 | 273 to 276
O=C1NC(=O)c2c1c(-c1ccccc1Cl)cc1oc3ccc(O)cc3c21 | 140 to 145
Cc1ccccc1C(=O)c1ccccc1C | 66 to 67
Cc1oc(-c2cccc(C(F)(F)F)c2)nc1COc1cccc(CN(O)C(N)=O)c1 | 160 to 161
CCCN1CC(Nc2ccc3c(c2)CCO3)CC2c3cccc4c3c(cn4C)CC21 (stereo not given) | 137 to 138
O=C1CCN(Cc2ncccc2O)CC1C(c1ccccc1)c1ccccc1 (stereo not given) | 121 to 122
CCCCOc1nc(N)c2nc(OC)n(CCNc3cccc(CC(=O)OC)c3)c2n1 | 119 to 120
Cc1ccc(CC(C(=O)C(Cc2ccc(C)cc2C)N2C(=O)c3ccccc3C2=O)N2C(=O)c3ccccc3C2=O)c(C)c1 (stereo not given) | 112
Cc1ccc(-n2nc3c(cc2=O)CCc2cnccc2-3)cc1 | 188 to 189

SMILES | melting point [°C]
Nc1cc(-n2cc(C(=O)O)c(=O)c3cc(F)c(NC4COC4)c(Cl)c32)c(F)cc1F | 240 to 244
COC(=O)NC(C)c1cccc(-c2ccc(OC)cc2)c1 (stereo not given) | 117 to 119
O=C(O)CCN1CCN(c2ccccc2)CC1 | 213 to 215
Cc1ccc(NC(=O)C#Cc2ccccc2)cc1 | 139 to 141
CC1CN(c2ccc(C(=O)C(F)(F)F)cc2)N=C1NC(=O)C(F)(F)F (stereo not given) | 203 to 204
CCc1nc2cnc3ccccc3c2s1 | 48 to 49
CC1(C)OC(c2ccc(S(N)(=O)=O)cc2F)=C(c2ccccc2)C1=O | 79 to 81
O=C(O)[C@@H]1C[C@H]2C[C@H](CCS(=O)(=O)O)CC[C@H]2CN1 (racemic) | 265
O=[N+]([O-])c1cc(F)c(N2CCSCC2)c(F)c1 | 104 to 105
N#CC(=C1CSc2ccccc2N1)c1ccc(Cl)cc1 | 137 to 139
Cc1cc(C)cc(C(=O)N[C@H](Cc2ccccc2)C(=O)N[C@@H](Cc2c[nH]c3ccccc23)C(=O)O)c1 | 95 to 98
CCCc1nc2c(N)nc(C)c(C)c2n1CCCS(C)(=O)=O | 154 to 155
NC(=O)c1cnc2cc(F)c(F)cc2c1 | 261
Cc1cc(NC(c2ccccc2)(c2ccccc2)c2ccccc2)no1 | 196 to 199
O=C1CSCc2cc(-c3ccccc3)ccc21 | 87 to 89
Nc1cc(Cl)nc(SCc2cccc(O)c2)n1 | 148
CNc1[nH]c(-c2ccccc2)c(C)c1C#N | 138 to 139
COc1cc2nc(C(N)=O)sc2cc1OC | 211 to 212
COc1c(-c2ccccc2C)c(=O)[nH]c2ccccc12 | 208 to 210
CCN(CC)C(=O)[C@H]1CN2CC[C@H]1[C@H](NCc1cc(OC)ccc1OC)[C@@H]2C(c1ccccc1)c1ccccc1 (relative stereo) | 153 to 154
CN(C)[C@H]1CC[C@H](Nc2ncc3ncnc(Nc4ccc(OCc5ccccc5)cc4)c3n2)CC1 | 155
O=S(=O)(c1ccccc1)c1c[nH]c2cccc(CCO)c12 | 55 to 60
O=C(c1ccccc1SSc1ccccc1C(=O)N1CCC(CO)C1)N1CCC(CO)C1 (stereo not given) | 169 to 171
CCOC(=O)c1ccc(NCc2cc(Br)ccc2OCc2ccccc2)c(N)c1 | 135
COC(=O)C(Cc1ccc(Cl)cc1Cl)=NO | 97 to 100
